Tested on: excised human nerve tissue
Experiment: Phage display selection on excised human nerve tissue (Nerve2, Nerve3), NextGen sequence counts
Type: binding
Settings: unique sequence count (relative enrichment)
How it was run: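 Randomized parent-peptide m13 phage libraries (about 50% mutation per residue) selected on washed excised human nerve tissue over multiple rounds, washing nerve pellet with PBS. NextGen sequencing of pools after rounds 2, 3 and 4; translated peptides counted by frequency, with counts 6 or greater retained.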

[1] = peptides common to Nerve2, Nerve3 and Plated Nerve 2 sets
[2] = peptides overlapping between Nerve2 and Plated Nerve2
[3] = peptides overlapping between Nerve2 and Nerve3

## 448 (LFPKYAPHESVKMS) [compound 448]
Nerve3 only
  Count: 78

## 13 (DILLDELRFAEKHG) [compound 13]
[1]
  Count: 203

## 264 (QFSSQEAHYELNTP) [compound 264]
Nerve2 only
  Count: 13

## 135 (HGAWEETHYVVIQS) [compound 135]
[2]
  Count: 94

## 375 (QLRFEGPDNPGVQS) [compound 375]
Nerve3 only
  Count: 269

## 360 (YLFAEELAYNLTKS) [compound 360]
Nerve3 only
  Count: 359

## 51 (QLHGDELLSVVKNP) [compound 51]
[2]
  Count: 232

## 213 (QVPWKGQYYVVASS) [compound 213]
[2]
  Count: 66

## 235 (LIVSQPSYLAVQYS) [compound 235]
[2]
  Count: 61

## 327 (LLPPDEPYYPMKKS) [compound 327]
Nerve2 only
  Count: 10

## 103 (QVPSHEPFYLGKKY) [compound 103]
[2]
  Count: 114

## 52 (ATEWEESYFHVKKF) [compound 52]
[2]
  Count: 223

## 165 (QYAREEPYYFMSYK) [compound 165]
[2]
  Count: 79

## 21 (HLPVEYPFYVFKNS) [compound 21]
[1]
  Count: 131

## 192 (HAHGQETYFLVKQS) [compound 192]
[2]
  Count: 71

## 82 (QIPEQQPYNVFKKS) [compound 82]
[2]
  Count: 142

## 193 (HFALQDPYQVFKKT) [compound 193]
[2]
  Count: 71

## 426 (QVRGGQPDQVLRLS) [compound 426]
Nerve3 only
  Count: 105

## 291 (HVTLAEPHLLLGKS) [compound 291]
Nerve2 only
  Count: 11

## 181 (VVPSQGTYHVGMTS) [compound 181]
[2]
  Count: 75

## 26 (HLPEEELYTIVRKT) [compound 26]
[1]
  Count: 85

## 388 (HFPWDEAYLVVKNP) [compound 388]
Nerve3 only
  Count: 230

## 416 (HVWWEEAHYSWKHS) [compound 416]
Nerve3 only
  Count: 120

## 351 (ELPWQKRKDVMKYP) [compound 351]
Nerve3 only
  Count: 638

## 25 (YVIKYAPYYAVTRS) [compound 25]
[1]
  Count: 93

## 5 (HVAFEQPDNVLVLY) [compound 5]
[1]
  Count: 357

## 400 (RLPQHESYIVGKIS) [compound 400]
Nerve3 only
  Count: 174

## 71 (QARFEQPYSGLRDS) [compound 71]
[2]
  Count: 167

## 434 (LDQWHTPNYVVRKS) [compound 434]
Nerve3 only
  Count: 92

## 188 (HVSFDEPYYYVKKS) [compound 188]
[2]
  Count: 72

## 359 (HVAWQEPRYFVKKS) [compound 359]
Nerve3 only
  Count: 359

## 234 (HVPAEPLVYENQKS) [compound 234]
[2]
  Count: 61

## 57 (QVPSHELYFRPKES) [compound 57]
[2]
  Count: 204

## 72 (LIPSAYPHSLWSKS) [compound 72]
[2]
  Count: 166

## 164 (QVRWPEQYYVVNMG) [compound 164]
[2]
  Count: 79

## 166 (QIPCQSDHNVVTNC) [compound 166]
[2]
  Count: 78

## 210 (ESQWEQPSDVFKVV) [compound 210]
[2]
  Count: 66

## 88 (QLPSQAQNYYVTAS) [compound 88]
[2]
  Count: 137

## 112 (HVQRQETDYAAKRI) [compound 112]
[2]
  Count: 110

## 48 (QFPGDERYYLATST) [compound 48]
[2]
  Count: 283

## 22 (RGSLEGPFKLGKTH) [compound 22]
[1]
  Count: 130

## 49 (HVSSQEPYYVLRNS) [compound 49]
[2]
  Count: 252

## 406 (QVPWEKPVSFVQKS) [compound 406]
Nerve3 only
  Count: 159

## 198 (EHPRVESVYLFPHT) [compound 198]
[2]
  Count: 69

## 305 (YVPLQEPYYVVKQS) [compound 305]
Nerve2 only
  Count: 11

## 108 (DFATEERRYAVPKY) [compound 108]
[2]
  Count: 111

## 353 (DDIWEVPKYRPKNS) [compound 353]
Nerve3 only
  Count: 475

## 1 (TIPYAEPYYVVRKY) [compound 1]
[1]
  Count: 711

## 145 (LVPWEEPGYFQNTS) [compound 145]
[2]
  Count: 88

## 289 (HVPGQDPYDVQATY) [compound 289]
Nerve2 only
  Count: 11

## 140 (HVPFDKSSHLVKKY) [compound 140]
[2]
  Count: 90

## 294 (NVPWQVPYSVLKMP) [compound 294]
Nerve2 only
  Count: 11

## 211 (KLPLEEPFYIVTPS) [compound 211]
[2]
  Count: 66

## 314 (HVLWVEPYYVINKY) [compound 314]
Nerve2 only
  Count: 10

## 175 (HVTLEKPYDVATKS) [compound 175]
[2]
  Count: 76

## 214 (HGPTDGPYYVSKKS) [compound 214]
[2]
  Count: 65

## 338 (QLPWEGKYQLGKKR) [compound 338]
Nerve2 only
  Count: 10

## 40 (HVSMDERYYVVKKT) [compound 40]
Peptides overlapping between Nerve3 and Plated Nerve 2
  Count: 17

## 336 (QLPCEVPCYLVQYS) [compound 336]
Nerve2 only
  Count: 10

## 4 (HVPGVDPYSVVKKF) [compound 4]
[1]
  Count: 368

## 260 (HVPFGGTYSVEGES) [compound 260]
Nerve2 only
  Count: 13

## 34 (QLRYQEHYYLGYNS) [compound 34]
[3]
  Count: 56

## 10 (YLTWEEPEHVNKQS) [compound 10]
[1]
  Count: 272

## 377 (HVPLPGPYFVLKNY) [compound 377]
Nerve3 only
  Count: 263

## 342 (QTQCEEPCYVVKFA) [compound 342]
Nerve2 only
  Count: 10

## 74 (QTQMQEPKYGVSHS) [compound 74]
[2]
  Count: 163

## 304 (RVPGERQYDALNLS) [compound 304]
Nerve2 only
  Count: 11

## 53 (RVPWEQSSWVVKRS) [compound 53]
[2]
  Count: 220

## 413 (HFPLQEPYYVVKNS) [compound 413]
Nerve3 only
  Count: 127

## 344 (QVPSENPFRVLKNL) [compound 344]
Nerve2 only
  Count: 10

## 269 (HVAWNEPHHVLLQI) [compound 269]
Nerve2 only
  Count: 12

## 73 (QLRSNEAYHVVKKS) [compound 73]
[2]
  Count: 166

## 36 (LVPWDETHKVVQRH) [compound 36]
[3]
  Count: 14

## 408 (WLHWEQPYWTVKKS) [compound 408]
Nerve3 only
  Count: 143

## 30 (RFHMVGPYNVATTS) [compound 30]
[1]
  Count: 68

## 137 (QVTWGEPQYVVYKS) [compound 137]
[2]
  Count: 94

## 366 (QLRLGDLYNVMTKE) [compound 366]
Nerve3 only
  Count: 328

## 321 (KLLTEAPYMFRTQA) [compound 321]
Nerve2 only
  Count: 10

## 44 (SVPKVHPYYVVNNS) [compound 44]
[2]
  Count: 333

## 380 (QFTSEETHYVVNKS) [compound 380]
Nerve3 only
  Count: 257

## 117 (QFPLVQPNYLVEMP) [compound 117]
[2]
  Count: 108

## 79 (QFPPEQPYGLANKS) [compound 79]
[2]
  Count: 150

## 24 (HFSAYEQYYVLRNS) [compound 24]
[1]
  Count: 111

## 437 (QVPYGQSFVVGTSS) [compound 437]
Nerve3 only
  Count: 90

## 9 (QVPAKEPYNFMKKS) [compound 9]
[1]
  Count: 299

## 382 (DVPWPNAYNFGIKS) [compound 382]
Nerve3 only
  Count: 238

## 324 (KQLGVLPDYVRKNT) [compound 324]
Nerve2 only
  Count: 10

## 111 (HSRLHETSYVFNKP) [compound 111]
[2]
  Count: 110

## 56 (QHTLNHPYSVVKTS) [compound 56]
[2]
  Count: 205

## 162 (QNAFSKPYNGVKPS) [compound 162]
[2]
  Count: 80

## 176 (QLPGEHPYYPIKKP) [compound 176]
[2]
  Count: 76

## 268 (YERWEAPFYDVQKS) [compound 268]
Nerve2 only
  Count: 13

## 378 (HVKRIETYYVFTKS) [compound 378]
Nerve3 only
  Count: 258

## 328 (NLQWEQPSYVAKDY) [compound 328]
Nerve2 only
  Count: 10

## 435 (QLLWDPPSYFVNNS) [compound 435]
Nerve3 only
  Count: 92

## 282 (RVPSAAAYYGAKIS) [compound 282]
Nerve2 only
  Count: 12

## 168 (DVRWSDPHDRITKS) [compound 168]
[2]
  Count: 77

## 64 (VVPSNAQHLAPNMS) [compound 64]
[2]
  Count: 191

## 418 (YSLWEDLIFNMQNS) [compound 418]
Nerve3 only
  Count: 116

## 259 (HSPSKESHYVLENM) [compound 259]
Nerve2 only
  Count: 13

## 157 (DVPWEEPYHVGNWR) [compound 157]
[2]
  Count: 80

## 279 (QLPWEKPYYDVEVT) [compound 279]
Nerve2 only
  Count: 12

## 90 (TSLSGAPFHNANTF) [compound 90]
[2]
  Count: 134

## 196 (DVEWEEPYYFLEKS) [compound 196]
[2]
  Count: 70

## 143 (RFPLEEPNYFQTKS) [compound 143]
[2]
  Count: 89

## 172 (QIPSHSPYYALNSS) [compound 172]
[2]
  Count: 77

## 2 (DFTMQEPYYAEKKT) [compound 2]
[1]
  Count: 593

## 425 (QIPTVEPYYEGKKS) [compound 425]
Nerve3 only
  Count: 105

## 256 (QYSLDESPYGAKKS) [compound 256]
Nerve2 only
  Count: 14

## 217 (HVPWGEPEALVKKS) [compound 217]
[2]
  Count: 65

## 438 (QLRWEDQYAHVEKS) [compound 438]
Nerve3 only
  Count: 89

## 231 (HVTSHEARYLAQNS) [compound 231]
[2]
  Count: 63

## 101 (YNLYEQPYSVLKRS) [compound 101]
[2]
  Count: 122

## 275 (QFPWEQRNYDVKKY) [compound 275]
Nerve2 only
  Count: 12

## 362 (FVSREEPYYVVKKS) [compound 362]
Nerve3 only
  Count: 341

## 357 (RIPSVGPYGVVKTF) [compound 357]
Nerve3 only
  Count: 391

## 303 (RLPEAEPYYLMTQP) [compound 303]
Nerve2 only
  Count: 11

## 156 (SHPWEKQYDVFNNS) [compound 156]
[2]
  Count: 81

## 250 (RVPSDEPYSFLRQS) [compound 250]
Nerve2 only
  Count: 15

## 123 (HRPWEEPYYVAKQS) [compound 123]
[2]
  Count: 104

## 92 (QLPGDVTYNLGHKS) [compound 92]
[2]
  Count: 133

## 288 (HVAWDGAYNLVQTT) [compound 288]
Nerve2 only
  Count: 11

## 421 (QVSLVESRSVLKIL) [compound 421]
Nerve3 only
  Count: 110

## 174 (HFEGEDLYDRVKSR) [compound 174]
[2]
  Count: 76

## 308 (HFPWEEPYHVAKRS) [compound 308]
Nerve2 only
  Count: 10
